The target of the assay is T1, PxKir2A (Plutella xylostella, UniProt A0A7L7TNR0).
T1 construct: gene kir2; full-length ORF in pEF1alpha-PxKir2A, no tag stated; transiently expressed in P. xylostella Px4-2 cells, EGFP co-transfected from a separate plasmid
As to the kind of experiment: whole-cell patch clamp, inhibition of inward K+ current. The assay is classed as cell-based. On the technique in general: Patch clamp records ionic current or voltage across a cell membrane.

SMILES strings stand for the structures. Like-named read-outs stand apart in the source and are kept apart here.

What is called IC50 is the point on the concentration scale where inhibition reaches its midpoint.

T1 sequence (A0A7L7TNR0 entry or part of it): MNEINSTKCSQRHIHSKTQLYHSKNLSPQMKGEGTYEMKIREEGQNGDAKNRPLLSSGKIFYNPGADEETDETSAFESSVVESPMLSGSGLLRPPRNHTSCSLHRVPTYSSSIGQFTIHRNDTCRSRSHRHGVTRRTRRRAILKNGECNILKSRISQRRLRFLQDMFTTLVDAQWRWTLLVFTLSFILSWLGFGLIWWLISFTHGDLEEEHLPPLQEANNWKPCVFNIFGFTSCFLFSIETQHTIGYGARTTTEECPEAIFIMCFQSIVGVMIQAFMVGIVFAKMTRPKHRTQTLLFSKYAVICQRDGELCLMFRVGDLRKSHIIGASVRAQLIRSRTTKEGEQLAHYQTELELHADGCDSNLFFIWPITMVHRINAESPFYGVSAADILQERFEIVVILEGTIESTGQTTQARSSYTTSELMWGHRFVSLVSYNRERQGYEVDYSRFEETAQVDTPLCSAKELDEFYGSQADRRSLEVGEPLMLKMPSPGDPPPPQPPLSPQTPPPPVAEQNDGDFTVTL

As for `O=[N+]([O-])c1ccc(CN2CCOCCOCCN(Cc3ccc([N+](=O)[O-])cc3)CCOCC2)cc1` [VU590], inhibition was half-maximal at 634 nM (IC50).

For `CCC(=O)N1c2ccc(S(=O)(=O)Nc3cccc(OC)c3)cc2CC1C` (centres unmarked) [VU625], the IC50 (bath 50 mM KCl, pH 6.4, 25 °C, holding -20 mV, steps -120 to +20 mV, DMSO <0.05%, read-out: IC50) turned out to be 151 nM.

The values are drawn from publication PMC11989005, “The Elongation Factor 1 Alpha Promoter Drives the Functional Expression of Kir2A in Plutella xylostella Cells” (International Journal of Molecular Sciences, 2025).
